# Calls of active or inactive are those of the source. The calls are words filed in the database; no cut-off is given here.
# Key:
# [1] = molecular target: T1, Beta-lactamase (Enterobacter cloacae, UniProt P05364); test: Inhibition of Enterobacter cloacae beta-lactamase incubated for 10 mins followed by nitrocefin substrate challenge and measured for 5 mins by spectrophotometric analysis
# [2] = molecular target: T1, Beta-lactamase; test: Inhibition of Enterobacter cloacae beta-lactamase incubated for 10 mins followed by nitrocefin substrate challenge and measured for 5 mins in presence of Triton X-100 by spectrophotometric analysis
# [3] = molecular target: Chymotrypsinogen A (Bos taurus) (UniProt P00766); test: Inhibition of bovine pancreas alpha-chymotrypsin at concentration of 6 uM using SPpNA as substrate treated with enzyme for 30 mins following enzyme incubation with 0.7 to 2.1 M DMSO for 5 mins followed by substrate addition and measured for 12 mins by DMSO-perturbation assay
# [4] = molecular target: Chymotrypsinogen A (Bos taurus) (UniProt P00766); test: Inhibition of bovine pancreas alpha-chymotrypsin at concentration of 6 nM using SAAPPpNA as substrate treated with enzyme for 30 mins following enzyme incubation with 0.7 to 2.1 M DMSO for 5 mins followed by substrate addition and measured for 12 mins by DMSO-perturbation assay
# [5] = Drug metabolism in DMSO-d6/potassium phosphate buffer assessed as drug recovery with small amount of metabolite formation by 1H-NMR analysis
# [6] = molecular target: T1, Beta-lactamase; test: (§1) Inhibition of Enterobacter cloacae beta-lactamase incubated for 10 mins followed by nitrocefin substrate challenge and measured for 5 mins in presence of 1 mM DTT by spectrophotometric analysis
# [7] = molecular target: T2, Chymotrypsinogen A (Bos taurus, UniProt P00766); test: (§2) Inhibition of alpha-chymotrypsin in bovine pancreas using SPpNA as substrate pretreated with enzyme for 30 mins followed by substrate addition and measured for 12 mins by spectrophotometric analysis
# [8] = molecular target: T2, Chymotrypsinogen A; test: Inhibition of alpha-chymotrypsin in bovine pancreas using SPpNA as substrate pretreated with enzyme for 30 mins followed by substrate addition and measured for 12 mins in presence of Triton X-100 by spectrophotometric analysis
# [9] = molecular target: Chymotrypsinogen A (Bos taurus) (UniProt P00766); test: as §2
# [10] = tested on: Bacillus cereus; test: Inhibition of Bacillus cereus 569/H9 beta-lactamase incubated for 10 mins followed by nitrocefin substrate challenge and measured for 5 mins by spectrophotometric analysis
# [11] = molecular target: Beta-lactamase (Enterobacter cloacae) (UniProt P05364); test: Inhibition of Enterobacter cloacae beta-lactamase at 500 uM incubated for 10 mins followed by nitrocefin substrate challenge and measured for 5 mins by spectrophotometric analysis relative to control
# Beta-lactamase (Enterobacter cloacae), sequence (P05364 21-381 limits assumed): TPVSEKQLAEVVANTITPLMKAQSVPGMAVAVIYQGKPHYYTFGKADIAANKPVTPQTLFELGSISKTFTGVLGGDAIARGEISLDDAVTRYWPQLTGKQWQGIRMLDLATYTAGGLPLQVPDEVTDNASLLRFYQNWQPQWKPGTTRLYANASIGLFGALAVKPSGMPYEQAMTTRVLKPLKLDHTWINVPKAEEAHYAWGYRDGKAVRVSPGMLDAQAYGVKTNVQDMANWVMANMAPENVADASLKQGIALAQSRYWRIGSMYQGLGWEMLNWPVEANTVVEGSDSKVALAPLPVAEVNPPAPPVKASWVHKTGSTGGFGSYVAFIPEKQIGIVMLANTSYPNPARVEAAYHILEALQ
# [12] = tested on: Bacillus cereus; test: Inhibition of Bacillus cereus 569/H9 beta-lactamase treated with enzyme for 10 mins following enzyme incubation with 0.7 to 2.1 M DMSO for 5 mins followed by nitrocefin substrate challenge and measured for 5 mins by DMSO-perturbation assay
# [13] = molecular target: Chymotrypsinogen A (Bos taurus) (UniProt P00766); test: Inhibition of alpha-chymotrypsin in bovine pancreas at 300 uM using SPpNA as substrate pretreated with enzyme for 30 mins followed by substrate addition and measured for 12 mins by spectrophotometric analysis relative to control
# [14] = molecular target: Beta-lactamase (Enterobacter cloacae) (UniProt P05364); test: as §1
# [15] = molecular target: Beta-lactamase (Enterobacter cloacae) (UniProt P05364); test: Inhibition of Enterobacter cloacae beta-lactamase at 200 uM incubated for 10 mins followed by nitrocefin substrate challenge and measured for 5 mins in presence of 1 mM DTT by spectrophotometric analysis relative to control
# T1 sequence (P05364 whole entry): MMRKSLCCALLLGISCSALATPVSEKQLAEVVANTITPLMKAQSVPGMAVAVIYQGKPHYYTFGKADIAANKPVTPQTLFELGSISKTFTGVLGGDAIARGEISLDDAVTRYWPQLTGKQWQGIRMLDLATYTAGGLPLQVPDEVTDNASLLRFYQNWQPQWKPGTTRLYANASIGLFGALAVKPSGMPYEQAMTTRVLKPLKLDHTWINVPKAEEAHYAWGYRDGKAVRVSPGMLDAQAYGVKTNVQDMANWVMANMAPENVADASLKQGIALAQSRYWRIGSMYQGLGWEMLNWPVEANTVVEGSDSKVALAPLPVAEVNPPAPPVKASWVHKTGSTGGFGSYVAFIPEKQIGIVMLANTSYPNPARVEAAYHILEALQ
smiles,measurement,setting,value
O=c1c(O)c(-c2ccc(O)c(O)c2)oc2cc(O)cc(O)c12 [QUERCETIN],IC50,[1]; read-out: IC50,85 µM
same,IC50,[2],> 500 µM
same,inhibition,[3],Active
same,inhibition,[4],Active
same,Drug metabolism,[5],Metabolite detected
same,IC50,[6],224 µM
O=c1cc(-c2ccc(O)c(O)c2)oc2ccccc12,IC50,[1],Nd(Insoluble)
same,IC50,[7]; read-out: IC50,226 µM
same,IC50,[8],270 µM
O=C(O)c1cc(=O)c2c(OCC(O)COc3cccc4oc(C(=O)O)cc(=O)c34)cccc2o1,inhibition,[9],inactive
same,inhibition,[10],inactive
CC1(C)[C@@H](O[C@H]2O[C@H](C(=O)O)[C@@H](O)[C@H](O)[C@H]2O[C@@H]2O[C@H](C(=O)O)[C@@H](O)[C@H](O)[C@H]2O)CC[C@]2(C)[C@H]3C(=O)C=C4[C@@H]5C[C@@](C)(C(=O)O)CC[C@]5(C)CC[C@@]4(C)[C@]3(C)CC[C@@H]12,inhibition,[10],inactive
CC1(C)S[C@@H]2[C@H](NC(=O)Cc3ccccc3)C(=O)N2[C@H]1C(=O)O [PENICILLIN G SODIUM],IC50,[1]; read-out: IC50,7.2 µM
same,IC50,[2],3.6 µM
O=C(O[C@@H]1Cc2c(O)cc(O)cc2O[C@@H]1c1cc(O)c(O)c(O)c1)c1cc(O)c(O)c(O)c1,inhibition,[10],inactive
COc1ccc2c(c1)c(CC(=O)O)c(C)n2C(=O)c1ccc(Cl)cc1,inhibition,[9],inactive
same,inhibition,[10],inactive
C[C@@H]1O[C@@H](OC[C@H]2O[C@@H](Oc3c(-c4ccc(O)c(O)c4)oc4cc(O)cc(O)c4c3=O)[C@H](O)[C@@H](O)[C@@H]2O)[C@H](O)[C@H](O)[C@H]1O [RUTIN],IC50,[1]; read-out: IC50,> 500 µM
same,inhibition,[11],15%
same,IC50,[7]; read-out: IC50,296 µM
same,IC50,[8],281 µM
same,inhibition,[3],Active
O=C(O)[C@H]1O[C@@H](Oc2cc3oc(-c4ccccc4)cc(=O)c3c(O)c2O)[C@H](O)[C@@H](O)[C@@H]1O,inhibition,[10],inactive
O=C(O)[C@H]1/C(=C/CO)O[C@@H]2CC(=O)N21,inhibition,[12],Active
CCCCCCCCCCCCCCCC(=O)OC[C@H](O)[C@H]1OC(=O)C(O)=C1O,inhibition,[9],inactive
same,inhibition,[10],inactive
CC(C)C[C@@H](N)C(=O)N[C@@H](Cc1ccccc1)C(=O)NCc1ccc(F)cc1,inhibition,[3],Active
O=C(CCc1ccc(O)cc1)c1c(O)cc(O)cc1O [PHLORETIN],IC50,[1]; read-out: IC50,496 µM
same,IC50,[7]; read-out: IC50,> 300 µM
same,inhibition,[13],9.9%
same,inhibition,[14],Active
CC(=O)c1c(O)c(C)c(O)c(Cc2c(O)c3c(c(C(=O)/C=C/c4ccccc4)c2O)OC(C)(C)C=C3)c1O [ROTTLERIN],IC50,[1]; read-out: IC50,96 µM
same,IC50,[2],142 µM
same,IC50,[7],Nd(Insoluble)
same,Drug metabolism,[5],Metabolite detected
same,inhibition,[15],< 50%
Oc1cc(O)c2c(c1)O[C@H](c1ccc(O)c(O)c1)[C@H](O)C2,inhibition,[10],inactive

# Source: ChEMBL document CHEMBL4304766, “DMSO-Perturbing Assay for Identifying Promiscuous Enzyme Inhibitors” (ACS Med Chem Lett, 2019)
